Test results published in ChEMBL document CHEMBL1156583, “Zwitterionic uracil derivatives as potent GnRH receptor antagonists with improved pharmaceutical properties” (Bioorg Med Chem Lett, 2008).

Key:
[1] = biological target: T1, Gonadotropin-releasing hormone receptor (Homo sapiens, UniProt P30968); test: Displacement of [125I]Pro-N-Et-GnRH from human cloned GnRH receptor expressed in HEK cells; type: cell-based, HEK293
T1 sequence (P30968 whole entry): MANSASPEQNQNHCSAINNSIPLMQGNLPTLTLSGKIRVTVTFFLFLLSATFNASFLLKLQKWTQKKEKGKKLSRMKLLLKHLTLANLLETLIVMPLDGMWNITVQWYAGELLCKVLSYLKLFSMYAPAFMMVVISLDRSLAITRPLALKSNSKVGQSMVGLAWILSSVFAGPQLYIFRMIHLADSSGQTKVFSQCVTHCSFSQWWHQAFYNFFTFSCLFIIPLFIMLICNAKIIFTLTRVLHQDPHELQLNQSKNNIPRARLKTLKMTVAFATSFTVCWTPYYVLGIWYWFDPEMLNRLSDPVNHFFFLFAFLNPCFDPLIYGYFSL

Cytochrome P450 3A4 = Cytochrome P450 3A4 (Homo sapiens, UniProt P08684); test: Inhibition of recombinant CYP3A4 by microtiter plate-based fluorimetric assay; type: ADME
[2] = biological target: T1, Gonadotropin-releasing hormone receptor; test: Displacement of [125I]tyr5,D-Leu6,NMeLeu7-GnRH from human cloned GnRH receptor expressed in RBL cells; type: cell-based
CYP3A4 = CYP3A4 (Homo sapiens, UniProt P08684); test: Inhibition of recombinant CYP3A4 at 200 uM by microtiter plate-based fluorimetric assay; type: ADME
[3] = biological target: T1, Gonadotropin-releasing hormone receptor; test: Antagonist activity at human GnRH receptor expressed in RBL cells assessed as inhibition of GnRH-stimulated [3H]inositol phosphate hydrolysis by whole cell assay; type: functional, cell-based
[4] = Permeability from apical to basolateral side of human Caco-2 cell membrane; type: ADME, cell-based
[5] = Oral bioavailability in Sprague-Dawley rat at 10 mg/kg; type: ADME, organism-based; settings: in vivo
[6] = Clearance in Sprague-Dawley rat at 2.5 mg/kg, iv; type: ADME, organism-based; design: dose 2.5 mg/kg, route intravenous; settings: in vivo
[7] = Half life in Sprague-Dawley rat at 2.5 mg/kg, iv; type: ADME, organism-based; design: dose 2.5 mg/kg, route intravenous; settings: in vivo

Sequence of Cytochrome P450 3A4 (P08684 whole entry): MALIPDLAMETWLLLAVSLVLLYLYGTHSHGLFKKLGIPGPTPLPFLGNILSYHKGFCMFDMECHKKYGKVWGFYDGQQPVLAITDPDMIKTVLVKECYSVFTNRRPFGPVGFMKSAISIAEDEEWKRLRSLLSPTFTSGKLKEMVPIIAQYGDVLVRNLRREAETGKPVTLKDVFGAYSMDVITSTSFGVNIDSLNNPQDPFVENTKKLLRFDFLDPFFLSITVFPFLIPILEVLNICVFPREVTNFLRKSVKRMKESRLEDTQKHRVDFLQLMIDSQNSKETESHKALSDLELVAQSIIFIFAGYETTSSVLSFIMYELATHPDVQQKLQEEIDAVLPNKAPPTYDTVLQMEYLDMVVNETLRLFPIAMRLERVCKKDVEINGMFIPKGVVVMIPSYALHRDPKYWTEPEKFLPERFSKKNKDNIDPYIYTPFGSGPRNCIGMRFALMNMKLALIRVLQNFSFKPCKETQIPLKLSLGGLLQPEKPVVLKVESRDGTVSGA
Sequence of CYP3A4 (P08684 whole entry): as above

SMILES	Ki [1]	IC50 (Cytochrome P450 3A4)	Ki [2]	other results
N[C@@H](Cn1c(=O)c(-c2cccc(OCCCCCC(=O)O)c2F)cn(Cc2c(F)cccc2C(F)(F)F)c1=O)c1ccccc1	33 nM	25000 nM		
CN[C@@H](Cn1c(=O)c(-c2cccc(OCCC(C)(C)CC(=O)O)c2F)c(C)n(Cc2c(F)cccc2C(F)(F)F)c1=O)c1ccccc1		22000 nM	29 nM	
Cc1c(-c2cccc(OCC(=O)O)c2F)c(=O)n(C[C@H](N)c2ccccc2)c(=O)n1Cc1c(F)cccc1C(F)(F)F			52 nM	inhibition at 200 µM (CYP3A4): 16%
Cc1c(-c2cccc(OCCCC(=O)O)c2)c(=O)n(C[C@H](N)c2ccccc2)c(=O)n1Cc1c(F)cccc1C(F)(F)F			7.5 nM	IC50 [3]: 23 nM
N[C@@H](Cn1c(=O)c(-c2cccc(OCCCCC(=O)O)c2F)cn(Cc2c(F)cccc2C(F)(F)F)c1=O)c1ccccc1	34 nM	36000 nM		
Cc1c(-c2cccc(OCCCC(=O)O)c2F)c(=O)n(C[C@H](N)c2ccccc2)c(=O)n1Cc1c(F)cccc1C(F)(F)F			4.7 nM	inhibition at 200 µM (CYP3A4): 21%
Cc1c(-c2cccc(OCCCCC(=O)O)c2)c(=O)n(C[C@H](N)c2ccccc2)c(=O)n1Cc1c(F)cccc1C(F)(F)F	4.1 nM	22000 nM		IC50 [3]: 26 nM; Papp A→B [4]: 0.1 ×10⁻⁶ cm/s; bioavailability [5]: 1.1%; clearance [6]: 7.5 mL/min/kg; half-life [7]: 10 h
CN[C@@H](Cn1c(=O)c(-c2cccc(OCCCN(C)CC(=O)O)c2F)c(C)n(Cc2c(F)cccc2C(F)(F)F)c1=O)c1ccccc1			35 nM	
CN[C@@H](Cn1c(=O)c(-c2cccc(OCCCCC(=O)O)c2F)c(C)n(Cc2c(F)cccc2C(F)(F)F)c1=O)c1ccccc1	1.2 nM	13000 nM		Papp A→B [4]: 1.2 ×10⁻⁶ cm/s; bioavailability [5]: 13%; clearance [6]: 50 mL/min/kg; half-life [7]: 5.1 h
CN[C@@H](Cn1c(=O)c(-c2cccc(OCCN(C)CC(=O)O)c2F)c(C)n(Cc2c(F)cccc2C(F)(F)F)c1=O)c1ccccc1			98 nM	
Cc1c(-c2cccc(OCCC(=O)O)c2F)c(=O)n(C[C@H](N)c2ccccc2)c(=O)n1Cc1c(F)cccc1C(F)(F)F			10.1 nM	
Cc1c(-c2cccc(OCCCCCC(=O)O)c2)c(=O)n(C[C@H](N)c2ccccc2)c(=O)n1Cc1c(F)cccc1C(F)(F)F	2.1 nM		1.1 nM	IC50 [3]: 2.8 nM; bioavailability [5]: 4.8%; clearance [6]: 36 mL/min/kg; half-life [7]: 4.9 h
Cc1c(-c2cccc(OCCCCC(=O)O)c2F)c(=O)n(C[C@H](N)c2ccccc2)c(=O)n1Cc1c(F)cccc1C(F)(F)F	1.2 nM		1 nM	IC50 [3]: 2.6 nM; Papp A→B [4]: 0.1 ×10⁻⁶ cm/s; bioavailability [5]: 6.6%; clearance [6]: 14 mL/min/kg; half-life [7]: 6.6 h
CN[C@@H](Cn1c(=O)c(-c2cccc(OCCCNCC(=O)O)c2F)c(C)n(Cc2c(F)cccc2C(F)(F)F)c1=O)c1ccccc1		33000 nM	155 nM	
CN[C@@H](Cn1c(=O)c(-c2cccc(OCCNCC(=O)O)c2F)c(C)n(Cc2c(F)cccc2C(F)(F)F)c1=O)c1ccccc1			27 nM	
Cc1c(-c2cccc(OCCCCCC(=O)O)c2F)c(=O)n(C[C@H](N)c2ccccc2)c(=O)n1Cc1c(F)cccc1C(F)(F)F	1.3 nM	8200 nM	1.2 nM	IC50 [3]: 0.6 nM; bioavailability [5]: 3.7%; clearance [6]: 21 mL/min/kg; half-life [7]: 2.9 h
CN[C@@H](Cn1c(=O)c(-c2cccc(OCCOCC(=O)O)c2F)c(C)n(Cc2c(F)cccc2C(F)(F)F)c1=O)c1ccccc1		10000 nM	9.3 nM	
Cc1c(-c2cccc(OCCCCC(=O)O)c2F)c(=O)n(C[C@@H](c2ccccc2)N(C)C)c(=O)n1Cc1c(F)cccc1C(F)(F)F	15 nM	42000 nM		Papp A→B [4]: 17 ×10⁻⁶ cm/s
CN[C@@H](Cn1c(=O)c(-c2cccc(OCCCOCC(=O)O)c2F)c(C)n(Cc2c(F)cccc2C(F)(F)F)c1=O)c1ccccc1		22000 nM	38 nM	
